Laboratory results taken from patent US8013006B2.
Like-named read-outs stand apart in the source and are kept apart here.

System: HCV replicon
Experiment: microbe, parasite or virus in culture
Assay type: cell-based
Conditions: read-out: Replicon IC5Os
[1] = Replicon IC50 values are determined by firefly luciferase signal, bicistronic replicon, 2 days

Row | Compound | IC50 [1] | IC50 (Hepatitis C virus, 48 h)
1 | CCCCOC(=O)Nc1cccc(-c2c(C#N)c3ccc(OC)cc3n2CC)c1 [Compound 300] | 500 to 2000 nM | 
2 | CCn1c(-c2cccc(NC(=O)OCCCCl)c2)c(C#N)c2ccc(OC)cc21 [Compound 301] |  | 500 to 2000 nM
3 | CCn1c(-c2cccc(NC(=O)OCCF)c2)c(C#N)c2ccc(OC)cc21 [Compound 302] |  | 500 to 2000 nM
4 | CCn1c(-c2cccc(NC(=O)OCc3ccccc3)c2)c(C#N)c2ccc(OC)cc21 [Compound 304] |  | 500 to 2000 nM
5 | CCn1c(-c2cccc(NC(=O)Oc3ccc(OC)cc3)c2)c(C#N)c2ccc(OC)cc21 [Compound 305] | > 2000 nM | 
6 | CCn1c(-c2cccc(NC(=O)Oc3ccc(Cl)cc3)c2)c(C#N)c2ccc(OC)cc21 [Compound 306] |  | 500 to 2000 nM
7 | CCn1c(-c2cccc(NC(=O)Oc3ccc(F)cc3)c2)c(C#N)c2ccc(OC)cc21 [Compound 307] | 500 to 2000 nM | 
8 | CCn1c(-c2cccc(NC(=O)Oc3ccc(Br)cc3)c2)c(C#N)c2ccc(OC)cc21 [Compound 309] |  | 500 to 2000 nM
9 | CCn1c(-c2cccc(NC(=O)OC(C)C)c2)c(C#N)c2ccc(OC)cc21 [Compound 310] |  | 500 to 2000 nM
10 | CCn1c(-c2ccc(NC(=O)OCC(C)C)cc2)c(C#N)c2ccc(OC)cc21 [Compound 311] | > 2000 nM | 
11 | CCCOC(=O)Nc1ccc(-c2c(C#N)c3ccc(OC)cc3n2CC)cc1 [Compound 312] | > 2000 nM | 
12 | CCn1c(-c2ccc(NC(=O)OCCOC)cc2)c(C#N)c2ccc(OC)cc21 [Compound 313] | > 2000 nM | 
13 | C=CCOC(=O)Nc1ccc(-c2c(C#N)c3ccc(OC)cc3n2CC)cc1 [Compound 314] | > 2000 nM | 
14 | CCn1c(-c2ccc(NC(=O)OCCCCl)cc2)c(C#N)c2ccc(OC)cc21 [Compound 315] | > 2000 nM | 
15 | CCn1c(-c2ccc(NC(=O)OC3C[C@H](C)CC[C@H]3C(C)C)cc2)c(C#N)c2ccc(OC)cc21 (stereo partly drawn) [Compound 316] | > 2000 nM | 
16 | CCn1c(-c2ccc(NC(=O)OCCF)cc2)c(C#N)c2ccc(OC)cc21 [Compound 317] | > 2000 nM | 
17 | CCn1c(-c2ccc(NC(=O)Oc3ccc(Cl)cc3)cc2)c(C#N)c2ccc(OC)cc21 [Compound 318] | > 2000 nM | 
18 | CCn1c(-c2ccc(NC(=O)Oc3ccc(F)cc3)cc2)c(C#N)c2ccc(OC)cc21 [Compound 319] | > 2000 nM | 
19 | CCn1c(-c2ccc(NC(=O)Oc3ccc(C)cc3)cc2)c(C#N)c2ccc(OC)cc21 [Compound 320] | > 2000 nM | 
20 | CCn1c(-c2cccc(C(=O)NCCCN3CCOCC3)c2)c(C#N)c2ccc(OC)cc21 [Compound 323] | > 2000 nM | 
21 | CCn1c(-c2cccc(NC(=O)CCl)c2)c(C#N)c2ccc(OC)cc21 [Compound 324] | > 2000 nM | 

Row | Compound | IC50 [1] | IC50 (Hepatitis C virus, 48 h)
22 | CCn1c(-c2cccc(NC(=O)c3ccccc3)c2)c(C#N)c2ccc(OC)cc21 [Compound 326] | > 2000 nM | 
23 | CCn1c(-c2cccc(NC(=O)c3ccco3)c2)c(C#N)c2ccc(OC)cc21 [Compound 327] | > 2000 nM | 
24 | CCn1c(-c2cccc(NC(=O)c3cc(C)on3)c2)c(C#N)c2ccc(OC)cc21 [Compound 328] | > 2000 nM | 
25 | CCn1c(-c2cccc(NC(C)=O)c2)c(C#N)c2ccc(OC)cc21 [Compound 329] | > 2000 nM | 
26 | CCn1c(-c2cccc(NC(=O)c3ccc4nonc4c3)c2)c(C#N)c2ccc(OC)cc21 [Compound 330] | > 2000 nM | 
27 | CCn1c(-c2cccs2)c(C#N)c2ccc(OC)cc21 [Compound 337] | > 2000 nM | 
28 | CCn1c(-c2cccc3c2oc2ccccc23)c(C#N)c2ccc(OC)cc21 [Compound 338] | > 2000 nM | 
29 | CCCn1c(-c2ccc(NS(=O)(=O)CC)cc2)cc2ccc(OC)cc21 [Compound 343] | > 2000 nM | 
30 | CCn1c(-c2cn(Cc3ccccc3)cn2)c(C#N)c2ccc(OC)cc21 [Compound 347] | > 2000 nM | 
31 | CCn1c(-c2cc[nH]n2)c(C#N)c2ccc(OC)cc21 [Compound 348] | > 2000 nM | 
32 | CCC(C)OC(=O)Nc1cccc(-c2c(C#N)c3ccc(OC)cc3n2CC)c1 (stereo not drawn) [Compound 349] |  | < 500 nM
33 | C#CCOC(=O)Nc1cccc(-c2c(C#N)c3ccc(OC)cc3n2CC)c1 [Compound 350] |  | 500 to 2000 nM
34 | C=CC(C)OC(=O)Nc1cccc(-c2c(C#N)c3ccc(OC)cc3n2CC)c1 (stereo not drawn) [Compound 351] |  | 500 to 2000 nM
35 | C#CCCOC(=O)Nc1cccc(-c2c(C#N)c3ccc(OC)cc3n2CC)c1 [Compound 352] | 500 to 2000 nM | 
36 | CCn1c(-c2cccc(NC(=O)OC)c2)c(C#N)c2ccc(OC)cc21 [Compound 353] |  | < 500 nM
37 | CC#CCOC(=O)Nc1cccc(-c2c(C#N)c3ccc(OC)cc3n2CC)c1 [Compound 354] | 500 to 2000 nM | 
38 | CCn1c(-c2cccc(NC(=O)OCCl)c2)c(C#N)c2ccc(OC)cc21 [Compound 355] | > 2000 nM | 
39 | CCn1c(-c2cccc(NC(=O)OCC(C)(C)C)c2)c(C#N)c2ccc(OC)cc21 [Compound 356] | > 2000 nM | 
40 | CCC(C)OC(=O)Nc1ccc(-c2c(C#N)c3ccc(OC)cc3n2CC)cc1 (stereo not drawn) [Compound 357] | > 2000 nM | 
41 | C#CCOC(=O)Nc1ccc(-c2c(C#N)c3ccc(OC)cc3n2CC)cc1 [Compound 358] | > 2000 nM | 
42 | C=CC(C)OC(=O)Nc1ccc(-c2c(C#N)c3ccc(OC)cc3n2CC)cc1 (stereo not drawn) [Compound 359] | > 2000 nM | 

Row | Compound | IC50 [1] | IC50 (Hepatitis C virus, 48 h)
43 | C#CCCOC(=O)Nc1ccc(-c2c(C#N)c3ccc(OC)cc3n2CC)cc1 [Compound 360] | > 2000 nM | 
44 | CCn1c(-c2ccc(S(=O)(=O)NC3CC3)cc2)c(C#N)c2ccc(OC)cc21 [Compound 363] | 500 to 2000 nM | 
45 | CCn1c(-c2ccc(NS(C)(=O)=O)cc2)c(C#N)c2ccc(C(F)(F)F)cc21 [Compound 365] |  | < 500 nM
46 | CCn1c(-c2ccc(NS(C)(=O)=O)cc2)c(C#N)c2ccccc21 [Compound 371] | > 2000 nM | 
47 | CCOC(=O)Nc1ccc(-c2c(C#N)c3ccccc3n2CC)cc1 [Compound 372] | 500 to 2000 nM | 
48 | CCn1c(-c2cccc(S(N)(=O)=O)c2)c(C#N)c2ccc(OC)cc21 [Compound 373] | > 2000 nM | 
49 | CCCNS(=O)(=O)c1ccc(-c2c(C#N)c3ccc(OC)cc3n2CC)cc1 [Compound 374] | > 2000 nM | 
50 | CCn1c(-c2cccc(N)c2)c(C#N)c2ccc(O)cc21 [Compound 376] | > 2000 nM | 
51 | CCn1c(-c2ccc(C(=O)N3CCCNCC3)cc2)c(C#N)c2ccc(OC)cc21 [Compound 377] | > 2000 nM | 
52 | CCn1c(-c2ccc(C(=O)Nc3ccc(Cl)c(Cl)c3)cc2)c(C#N)c2ccc(OC)cc21 [Compound 380] | > 2000 nM | 
53 | CCn1c(-c2ccc(C(=O)Nc3ccc(C)cc3)cc2)c(C#N)c2ccc(OC)cc21 [Compound 381] | > 2000 nM | 
54 | CCn1c(-c2ccc(C(=O)Nc3ccc(Cl)cc3)cc2)c(C#N)c2ccc(OC)cc21 [Compound 382] | 500 to 2000 nM | 
55 | CCn1c(-c2cccc(NC(=O)C(C)C)c2)c(C#N)c2ccc(OC)cc21 [Compound 383] | > 2000 nM | 
56 | CCn1c(-c2ccc(C(=O)NC(C)C)cc2)c(C#N)c2ccc(OC)cc21 [Compound 385] | 500 to 2000 nM | 
57 | CCn1c(-c2ccc(C(=O)NC3CC3)cc2)c(C#N)c2ccc(OC)cc21 [Compound 386] | > 2000 nM | 
58 | CCn1c(-c2ccc(C(=O)N3CCC3)cc2)c(C#N)c2ccc(OC)cc21 [Compound 387] | > 2000 nM | 
59 | CCn1c(-c2ccc(C(=O)NCCO)cc2)c(C#N)c2ccc(OC)cc21 [Compound 388] | > 2000 nM | 
60 | CCn1c(-c2ccc(C(=O)NCCCN3CCOCC3)cc2)c(C#N)c2ccc(OC)cc21 [Compound 389] | > 2000 nM | 
61 | CCn1c(-c2ccc(C(=O)Nc3ccccc3)cc2)c(C#N)c2ccc(OC)cc21 [Compound 390] | > 2000 nM | 
62 | CCn1c(-c2ccc(C(=O)Nc3ccc(OC)c(OC)c3)cc2)c(C#N)c2ccc(OC)cc21 [Compound 392] | > 2000 nM | 
63 | CCn1c(-c2ccc(N)cc2)c(C#N)c2cc(Cl)ccc21 [Compound 393] | 500 to 2000 nM | 

Row | Compound | IC50 [1] | IC50 (Hepatitis C virus, 48 h)
64 | CCn1c(-c2ccc(NS(C)(=O)=O)cc2)c(C#N)c2cc(Cl)ccc21 [Compound 394] | < 500 nM | 
65 | CCn1c(-c2cccc(NC(=O)NCCCl)c2)c(C#N)c2ccc(OC)cc21 [Compound 395] | 500 to 2000 nM | 
66 | CCCNC(=O)Nc1cccc(-c2c(C#N)c3ccc(OC)cc3n2CC)c1 [Compound 396] |  | < 500 nM
67 | CCn1c(-c2cccc(NC(=O)NC(C)C)c2)c(C#N)c2ccc(OC)cc21 [Compound 397] |  | < 500 nM
68 | CCCCNC(=O)Nc1cccc(-c2c(C#N)c3ccc(OC)cc3n2CC)c1 [Compound 398] |  | < 500 nM
69 | C=CCNC(=O)Nc1cccc(-c2c(C#N)c3ccc(OC)cc3n2CC)c1 [Compound 399] |  | < 500 nM
70 | CCn1c(-c2cccc(NC(=O)NCCCCl)c2)c(C#N)c2ccc(OC)cc21 [Compound 400] | 500 to 2000 nM | 
71 | CCNC(=O)Nc1cccc(-c2c(C#N)c3ccc(OC)cc3n2CC)c1 [Compound 401] |  | < 500 nM
72 | CCn1c(-c2cccc(NC(=O)NCCc3ccccc3)c2)c(C#N)c2ccc(OC)cc21 [Compound 402] | 500 to 2000 nM | 
73 | CCn1c(-c2cccc(NC(=O)Nc3ccc(C(C)C)cc3)c2)c(C#N)c2ccc(OC)cc21 [Compound 403] |  | 500 to 2000 nM
74 | CCn1c(-c2cccc(NC(=O)Nc3ccc(C)cc3)c2)c(C#N)c2ccc(OC)cc21 [Compound 404] | > 2000 nM | 
75 | CCn1c(-c2cccc(NC(=O)Nc3ccccc3C)c2)c(C#N)c2ccc(OC)cc21 [Compound 405] |  | 500 to 2000 nM
76 | CCn1c(-c2cccc(NC(=O)Nc3ccc(Oc4ccccc4)cc3)c2)c(C#N)c2ccc(OC)cc21 [Compound 406] |  | < 500 nM
77 | CCOC(=O)c1ccc(NC(=O)Nc2cccc(-c3c(C#N)c4ccc(OC)cc4n3CC)c2)cc1 [Compound 407] | 500 to 2000 nM | 
78 | COc1ccc2c(C#N)c(-c3ccc(NS(C)(=O)=O)cc3)n(CC(C)C)c2c1 [Compound 409] | 500 to 2000 nM | 
79 | CCOc1ccc2cc(-c3ccc(NS(C)(=O)=O)cc3)n(CC)c2c1 [Compound 410] | 500 to 2000 nM | 
80 | CCOc1ccc2cc(-c3ccc(NS(=O)(=O)CC)cc3)n(CC)c2c1 [Compound 411] | 500 to 2000 nM | 
81 | CCCn1c(-c2ccc(NS(C)(=O)=O)cc2)cc2ccc(OCC)cc21 [Compound 412] | > 2000 nM | 
82 | CCOc1ccc2c(C#N)c(-c3ccc(NS(=O)(=O)CC)cc3)n(C)c2c1 [Compound 414] | 500 to 2000 nM | 
83 | CCCn1c(-c2ccc(NS(C)(=O)=O)cc2)c(C#N)c2ccc(OCC)cc21 [Compound 417] | < 500 nM | 
84 | CCOc1ccc2c(C#N)c(-c3ccc(NS(C)(=O)=O)cc3)n(C(C)C)c2c1 [Compound 419] | 500 to 2000 nM | 
